According to patent US11039613B2, “Germination promoters” (SYNGENTA PARTICIPATIONS AG, priority 2017, dated 2021):
Where two headings read alike, the source gives them in different places.

What was measured:
[1] = tested on: NK Falkone corn seeds; test: Corn seed germination, salt (NaCl, 100 mM) stress and optimal temperature (23° C.); assay type: in vivo; details: salt (NaCl) stress
Method: (§1) NK Falkone corn seeds (harvested in 2015) were sorted by size using a sieve to keep away round seeds.
The corn seeds were placed in 24 well plates (each plate was considered as one experimental unit or replicate). […] 8 replicates (i.e. 8 plates) were used for each treatment characterization. Plates were sealed using seal foil (Polyolefin Art. Nr. 900320) from HJ-BIOANALYTIK. All plates were placed in two carrousels in a climatic chamber at 15° C. The experiment was laid out in a completely randomized design in climatic chamber with 60% Relative Humidity.
(§2) Germination was followed over time by taking photographs at different time points. Image analysis was performed automatically with a macro which was developed using the Image J software. A dynamic analysis of germination was carried out by fitting a logistic curve. Three parameters were calculated from the logistic curve: the T50; the slope and the plateau. All three parameters have a high agronomical relevance and are key requirements to ensure a good early crop-establishment. The T50 and slope for a selection of compounds are outlined in Table 2 below. All the values are expressed as percentages compared to an untreated control. All the three parameters are calculated considering 8 replicates and the kinetic parameters are separately determined for each germination curve. Data in bold indicate germination enhancing statistically significant differences between treated seeds and untreated control (p<0.05). T50 corresponds to the time needed for half of the seed population to germinate. Higher negative %-values indicate faster germination. Slope indicates how synchronous the germination of the seed population is. Positive values indicate steeper curve. The steeper the curve, the better and more uniform the germination is.
The experimental protocol was the same as in Example B1, except that the plates were placed in a climatic chamber at 23° C.

[2] = tested on: NK Falkone corn seeds; test: Corn seed germination, salt (NaCl, 100 mM) and cold stresses (15° C.); assay type: in vivo; details: cold 15° C. and salt 100 mM NaCl
Method: as §1
(§3) The corn seeds were placed in 24 well plates (each plate was considered as one experimental unit or replicate). Germination was initiated by the addition of 200 μl of distilled water containing 0.5% DMSO per well. 8 replicates (i.e. 8 plates) were used for each treatment characterization. Plates were sealed using seal foil (Polyolefin Art. Nr. 900320) from HJ-BIOANALYTIK. All plates were placed in two carrousels in a climatic chamber at 15° C. The experiment was laid out in a completely randomized design in climatic chamber with 60% Relative Humidity.
as §2
(§4) The effect of compounds of Formula (III-1 and P1) on the germination of NK Falkone corn seeds under salt and cold stress was evaluated as follows.
The experimental protocol was the same as in Example B1, except that germination was initiated by the addition of 200 μl of distilled water containing 0.5% DMSO and 100 mM NaCl per well.

[3] = Hydrolytic stability; assay type: physicochemical; details: for half-life: aqueous buffer/acetonitrile solution, pH 9, pH 9, buffer/acetonitrile
Method: Prior to conducting the individual hydrolytic stability assays, stock solutions containing 1000 ppm of each test compound (i.e. compounds III-1 and P1) were prepared in acetonitrile.
The reagents used in the assays were prepared as follows. A 20 mM buffer solution was prepared from a stock solution of 20 mM mixed acetate, borate and phosphate buffer and the pH adjusted to 7 or 9 as required.
Test solutions were prepared in LC vials for each test compound in the following manner: Hydrolytic Stability: Buffer (750 μL)+acetonitrile (250 μL)+compound stock solution (2 to 40 μL).
The buffers were initially dispensed into separate glass LC vials, placed into an autosampler complete with thermostat set at 40° C. and allowed to equilibrate for 30 minutes prior to starting the individual assays.
Analysis was carried out on Waters LCMS systems under reverse phase conditions using 10 cm C18 columns and acetonitrile (HPLC grade) acidified water (0.2% formic acid) mobile phase at a flow rate of 1 ml min-1. Peak detection was at the optimum wavelength (230-250 nm) and peak areas were used for quantification
Reactions were initiated by addition of the compound solution and monitored through a series of repeat injections made directly from the vial into the HPLC system at regular time intervals. Initial and subsequent measurements of peak area attributable to the test compound were used to fit exponential half-lives and calculate first-order rate constants.
Consequently, the percentage of compound remaining was recorded at the last assessment time.

[4] = tested on: NK Falkone corn seeds; test: Corn seed germination, osmotic stress (PEG 2%) and cold stress (15° C.); assay type: in vivo; details: osmotic (PEG 2%) and cold 15° C.
Method: as §1, §3, §2, §4
The experimental protocol was the same as in Example B1, except that germination was initiated by the addition of 200 μl of distilled water containing 0.5% DMSO and 2% PEG per well.

[5] = tested on: NK Falkone corn seeds; test: Corn seed germination, cold stress (15° C.); assay type: in vivo; details: for T50 (% vs control): control T50 = 110 hours
Method: The effect of compounds of Formula (II-1 and III-1) on the germination of NK Falkone corn seeds under salt and cold stress was evaluated as follows.
as §1, §3, §2

CC1=CC(O/C=C2/C(=O)NC3Cc4ccccc4C23)N(c2cc(C(F)(F)F)cc(C(F)(F)F)c2)C1=O (stereo not drawn) [III-1, (1E)-[[1-[3,5-bis(trifluoromethyl)phenyl]-4-methyl-1-oxo-2H-pyrrol-2-yl]oxymethylene]-3,3a,4,8b-tetrahydroindeno[2,1-b]pyrrol-2-one]
Slope (% vs control) ([1]; Rate 0.4 μM): 1.2 % vs control
T50 (% vs control) ([1]; Rate 0.4 μM): −0.5 % vs control
Slope (% vs control) ([1]; Rate 2 μM): −0.4 % vs control
T50 (% vs control) ([1]; Rate 2 μM): −0.2 % vs control
Slope (% vs control) ([1]; Rate 10 μM): 85.8 % vs control
T50 (% vs control) ([1]; Rate 10 μM): −11 % vs control
Slope (% vs control) ([1]; Rate 50 μM): 132.5 % vs control
T50 (% vs control) ([1]; Rate 50 μM): −15.9 % vs control
Slope compared with closest prior art compound P1 ([1]; at equivalent rates, vs P1): higher slope
T50 compared with closest prior art compound P1 ([1]; at equivalent rates, vs P1): lower T50
Slope (% vs control) ([2]; Rate 0.4 μM): −4 % vs control
T50 (% vs control) ([2]; Rate 0.4 μM): −0.5 % vs control
Slope (% vs control) ([2]; Rate 2 μM): 7.4 % vs control
T50 (% vs control) ([2]; Rate 2 μM): −1.2 % vs control
Slope (% vs control) ([2]; Rate 10 μM): 54.1 % vs control
T50 (% vs control) ([2]; Rate 10 μM): −9.3 % vs control
Slope (% vs control) ([2]; Rate 50 μM): 114.7 % vs control
T50 (% vs control) ([2]; Rate 50 μM): −6.1 % vs control
half-life ([3]; 40° C., less polar isomer, read-out: Hydrolytic stability pH9 (t½), less polar isomer (converted)): > 59 h
half-life ([3]; 40° C., more polar isomer, read-out: Hydrolytic stability pH9 (t½), more polar isomer): > 59 h
% remaining, less polar isomer ([3]; pH 9, 40° C., at 17.6 hours, less polar isomer): 97.5% remaining at 17.6 hours
% remaining, more polar isomer ([3]; pH 9, 40° C., at 17.6 hours, more polar isomer): 94.9% remaining at 17.6 hours
Hydrolytic stability compared with less polar isomer of P1 ([3]; pH 9, less polar isomer, vs P1): more stable
Slope (% vs control) ([4]; Rate 0.4 μM): 1 % vs control
T50 (% vs control) ([4]; Rate 0.4 μM): 0.8 % vs control
Slope (% vs control) ([4]; Rate 2 μM): 3.9 % vs control
T50 (% vs control) ([4]; Rate 2 μM): −0.2 % vs control
Slope (% vs control) ([4]; Rate 10 μM): 7.6 % vs control
T50 (% vs control) ([4]; Rate 10 μM): −3.6 % vs control
Slope (% vs control) ([4]; Rate 50 μM): 23.8 % vs control
T50 (% vs control) ([4]; Rate 50 μM): −4.0 % vs control
Slope compared with closest prior art compound P1 ([4]; at equivalent rates, vs P1): higher slope
T50 compared with closest prior art compound P1 ([4]; at equivalent rates, vs P1): lower T50
Slope (% vs control) ([5]; Rate 0.4 μM): 7.3 % vs control
T50 (% vs control) ([5]; Rate 0.4 μM): −0.7 % vs control
Slope (% vs control) ([5]; Rate 2 μM): 14.3 % vs control
T50 (% vs control) ([5]; Rate 2 μM): 1.3 % vs control
Slope (% vs control) ([5]; Rate 10 μM): 82.6 % vs control
T50 (% vs control) ([5]; Rate 10 μM): −8.5 % vs control
Slope (% vs control) ([5]; Rate 50 μM): 175.6 % vs control
T50 (% vs control) ([5]; Rate 50 μM): −10.1 % vs control
Slope compared with closest prior art compound P1 ([5]; at equivalent rates, vs P1): higher slope
